Test results reported in US10000483B2, “Bone marrow on X chromosome kinase (BMX) inhibitors and uses thereof” (Dana-Farber Cancer Institute, Inc., priority 2012, dated 2018).

Experiments:
[1] = tested on: OCI-Ly19 cells; assay: Cell proliferation analysis for WM and lymphoma cell lines (CellTiter-Glo); type: cell-based; settings: Homo sapiens, 72 hours
Method: (§3) Various cell lines were used including Waldenström's macroglobulinemia (WM) cell lines (BCWM.1, MWCL-1, RPCI-WM1) and B-cell lymphoma cell lines (OCI-Ly3, Ramos, OCI-Ly19). Cells were seeded into 384 well plates with the EL406 Combination Washer Dispenser (BioTek Instruments, Inc.) and inhibitor compounds were injected into the cells culture media with the JANUS Automated Workstation (PerkinElmer Inc.).

[2] = target: JAK3 (Homo sapiens (Human), UniProt P52333); assay: DiscoverX binding assay
Text: (§4) Screening hits are identified by measuring the amount of protein captured in test versus control samples by using a quantitative, precise, and ultra-sensitive qPCR method that detects the associated DNA label.

[3] = tested on: DU-145 cells; assay: cells; settings: Homo sapiens, DU-145, read-out: GI50, DU-145
Method: (§5) Data were normalized to control group (DMSO) and represented by the mean of at least two independent measurement with standard error <20%. GI50 were calculated using Prism 5.0 (GraphPad Software, San Diego, Calif.).

[4] = tested on: RV-1 cells expressing wild-type BMX or C496S mutant; settings: FIG. 16
[5] = tested on: BCWM.1 cells; assay: Cell proliferation analysis for WM and lymphoma cell lines (CellTiter-Glo); type: cell-based; settings: BCWM1; 72 hours
Method: as §3

[6] = target: wild-type (WT) BMX (Homo sapiens (Human), UniProt P51813); assay: IP kinase assay, BMX autophosphorylation; type: biochemical; settings: FIG. 15
Text: (§1) FIG. 15 confirms that the potency of the BMX inhibitors is due to covalent binding to cysteine 496.

[7] = target: BMX (C496S) (Homo sapiens (Human), UniProt P51813, C496S); assay: IP kinase assay, BMX autophosphorylation; type: biochemical; settings: FIG. 15A
Text: as §1

[8] = target: T1, mTOR (Homo sapiens (Human), UniProt P42345); assay: DiscoverX binding assay; settings: read-out: % inhibition at 1 uM, MTOR
Text: as §4

[9] = target: CLK1 (Homo sapiens (Human), UniProt P49759); assay: DiscoverX binding assay; settings: read-out: % inhibition at 1 uM, CLK1
Text: as §4

[10] = tested on: OCI-Ly3 cells; assay: Cell proliferation analysis for WM and lymphoma cell lines (CellTiter-Glo); type: cell-based; settings: Homo sapiens, 72 hours
Method: as §3

[11] = target: PIK4CB (Homo sapiens (Human), UniProt Q9UBF8); assay: Kinase panel at 1 uM (Table 9); type: binding; settings: read-out: % inhibition at 1 uM, PIK4CB
Text: as §4

[12] = target: PIK3CA(I800L) (Homo sapiens (Human), UniProt P42336, I800L); assay: Kinase panel at 1 uM (Table 9); type: binding; settings: read-out: % inhibition at 1 uM, PIK3CA(I800L)
Text: as §4

[13] = tested on: MWCL-1 cells; assay: Cell proliferation analysis for WM and lymphoma cell lines (CellTiter-Glo); type: cell-based; settings: 72 hours
Method: as §3

[14] = target: DYRK1A (Homo sapiens (Human), UniProt Q13627); assay: Kinase panel at 1 uM (Table 9); type: binding; settings: read-out: % inhibition at 1 uM, DYRK1A
Text: as §4

[15] = target: T2, TEC (Homo sapiens (Human), UniProt P42680); assay: DiscoverX binding assay
Text: as §4

[16] = target: PIK3CG (Homo sapiens (Human), UniProt P48736); assay: Kinase panel at 1 uM (Table 9); type: binding; settings: read-out: % inhibition at 1 uM, PIK3CG
Text: as §4

[17] = target: T3, BMX (Homo sapiens (Human), UniProt P51813); assay: BMX protein levels in RV-1 cells; type: cell-based; settings: 72 h treatment, 5 μM
Text: Moreover, the depletion could be rescued upon stable overexpression of the C496S mutant BMX.

[18] = tested on: FLT3(ITD); assay: Kinase panel at 1 uM (Table 9); type: binding
Text: as §4

[19] = target: MEK5 (Homo sapiens (Human), UniProt Q13163); assay: Kinase panel at 1 uM (Table 9); type: binding; settings: read-out: % inhibition at 1 uM, MEK5
Text: as §4

[20] = tested on: TEL-JAK1 transformed Ba/F3 cells; assay: cells; settings: Mus musculus, BaF3, read-out: GI50, TEL-JAK1
[21] = tested on: TEL-BLK transformed Ba/F3 cells; assay: cells; settings: Mus musculus, BaF3, read-out: GI50, TEL-BLK
[22] = tested on: Ramos cells; assay: Cell proliferation analysis for WM and lymphoma cell lines (CellTiter-Glo); type: cell-based; settings: Homo sapiens, 72 hours
Method: as §3

[23] = target: ITK (Homo sapiens (Human), UniProt Q08881); assay: Invitrogen Select Screening in vitro kinase assay; type: biochemical
[24] = tested on: RV1 xenograft; assay: RV1 xenograft growth; settings: over 2 weeks, in vivo treatment; FIG. 19
[25] = tested on: RV1 cells; assay: Prostate cancer cell apoptosis, cleaved caspase 3; type: cell-based
Text: Caspase-3 positive cells were counted and normalized to total cell number (N=5).

[26] = target: T3, BMX; assay: BMX autophosphorylation in RV-1 cells; type: cell-based
[27] = target: CSNK2A2 (Homo sapiens (Human), UniProt P19784); assay: Kinase panel at 1 uM (Table 9); type: binding; settings: read-out: % inhibition at 1 uM, CSNK2A2
Text: as §4

[28] = tested on: RV-1 cells; assay: Anti-proliferation assay for prostate cancer cells (CellTiter-Glo); type: cell-based
Method: as §5

[29] = target: BLK (Homo sapiens (Human), UniProt P51451); assay: Invitrogen Select Screening in vitro kinase assay; type: biochemical
Text: (§2) The in vitro activity of compounds of Formula (I) and (II) in inhibiting BMX and other kinases were obtained using an Invitrogen Select Screening assay as known in the art. The IC50 values determined from this assay are shown below.

[30] = target: T2, TEC; assay: Invitrogen Select Screening in vitro kinase assay; type: biochemical
Text: as §2

[31] = target: T1, mTOR; assay: Invitrogen Select Screening in vitro kinase assay; type: biochemical
Text: as §2

[32] = target: PIP5K2C (Homo sapiens (Human), UniProt Q8TBX8); assay: Kinase panel at 1 uM (Table 9); type: binding; settings: read-out: % inhibition at 1 uM, PIP5K2C
Text: as §4

[33] = target: T3, BMX; assay: Invitrogen Select Screening in vitro kinase assay; type: biochemical
[34] = target: JNK1 (Homo sapiens (Human), UniProt P45983); assay: Kinase panel at 1 uM (Table 9); type: binding; settings: read-out: % inhibition at 1 uM, JNK1
Text: as §4

[35] = tested on: TEL-Abl transformed Ba/F3 cells; assay: cells; settings: Mus musculus, BaF3, read-out: GI50, TEL-Abl

C=CC(=O)Nc1cc(-n2c(=O)ccc3cnc4ccc(-c5ccc(NS(C)(=O)=O)cc5)cc4c32)ccc1C [I-14]
EC50 [1]: 900 nM | Percent Control, JAK3 ([2]; DiscoverX binding): 20% | inhibition at 1 µM ([2]; read-out: % inhibition at 1 uM, JAK3(JH1domain-catalytic)): 6.6% | GI50 [3]: 4380 nM | growth inhibition of cells expressing wild-type BMX versus C496S mutant [4]: more potently inhibits growth of cells expressing the wild-type BMX than the C496S mutant | EC50 [5]: 1100 nM | concentration inhibiting autophosphorylation of wild-type BMX [6]: 10 to 100 nM | concentration inhibiting autophosphorylation of BMX (C496S) [7]: > 10,000 nM | inhibition at 1 µM [8]: 45% | inhibition at 1 µM [9]: 95% | EC50 [10]: > 20000 nM | inhibition at 1 µM [11]: 79% | inhibition at 1 µM [12]: 46% | EC50 [13]: 1390 nM | inhibition at 1 µM [14]: 100% | Percent Control, TEC [15]: 27% | inhibition at 1 µM [16]: 2.8% | BMX protein levels in RV-1 cells [17]: significantly reduced | % inhibition at 1 uM, FLT3(ITD) [18]: 99% | inhibition at 1 µM [19]: 100% | GI50 [20]: 4920 nM | GI50 [21]: 3640 nM | EC50 [22]: > 20000 nM | IC50 [23]: 5250 nM | RV1 xenograft growth [24]: decreased | cell numbers and apoptosis by Caspase 3 staining ([25]; 5 pM concentration (so in the source)): reduced cell numbers and induced apoptosis | concentration causing apoptosis based on increased cleaved caspase 3 ([25]; FIG. 18C): 10 to 20 µM | concentration sufficient to inhibit BMX autophosphorylation in RV-1 cells [26]: ≤ 1 µM | inhibition at 1 µM [27]: 100% | GI50 ([28]; RV-1): 2540 nM | IC50 ([28]; RV-1, 120 h, 5 day incubation): 2530 nM | IC50 [29]: 377 nM | IC50 [30]: 653 nM | IC50 [31]: 325 nM | inhibition at 1 µM [32]: 5.6% | IC50 [33]: 7.99 nM | inhibition at 1 µM [34]: 93% | GI50 [35]: > 10000 nM
